Experimental data from US20080171716A1, “NUCLEIC ACID MODULATION OF TOLL-LIKE RECEPTOR-MEDIATED IMMUNE STIMULATION” (Protiva Biotherapeutics, Inc., priority 2006, published 2008).
m = 2'-O-methyl; r = 2'-OH (RNA)

Target: T1, TLR9 (Homo sapiens, UniProt Q9NR96)
T1 construct: these experiments were repeated in human PBMC cultures; endogenous in cells; host or cells: primary human PBMCs
T1 sequence (Q9NR96 26-1032): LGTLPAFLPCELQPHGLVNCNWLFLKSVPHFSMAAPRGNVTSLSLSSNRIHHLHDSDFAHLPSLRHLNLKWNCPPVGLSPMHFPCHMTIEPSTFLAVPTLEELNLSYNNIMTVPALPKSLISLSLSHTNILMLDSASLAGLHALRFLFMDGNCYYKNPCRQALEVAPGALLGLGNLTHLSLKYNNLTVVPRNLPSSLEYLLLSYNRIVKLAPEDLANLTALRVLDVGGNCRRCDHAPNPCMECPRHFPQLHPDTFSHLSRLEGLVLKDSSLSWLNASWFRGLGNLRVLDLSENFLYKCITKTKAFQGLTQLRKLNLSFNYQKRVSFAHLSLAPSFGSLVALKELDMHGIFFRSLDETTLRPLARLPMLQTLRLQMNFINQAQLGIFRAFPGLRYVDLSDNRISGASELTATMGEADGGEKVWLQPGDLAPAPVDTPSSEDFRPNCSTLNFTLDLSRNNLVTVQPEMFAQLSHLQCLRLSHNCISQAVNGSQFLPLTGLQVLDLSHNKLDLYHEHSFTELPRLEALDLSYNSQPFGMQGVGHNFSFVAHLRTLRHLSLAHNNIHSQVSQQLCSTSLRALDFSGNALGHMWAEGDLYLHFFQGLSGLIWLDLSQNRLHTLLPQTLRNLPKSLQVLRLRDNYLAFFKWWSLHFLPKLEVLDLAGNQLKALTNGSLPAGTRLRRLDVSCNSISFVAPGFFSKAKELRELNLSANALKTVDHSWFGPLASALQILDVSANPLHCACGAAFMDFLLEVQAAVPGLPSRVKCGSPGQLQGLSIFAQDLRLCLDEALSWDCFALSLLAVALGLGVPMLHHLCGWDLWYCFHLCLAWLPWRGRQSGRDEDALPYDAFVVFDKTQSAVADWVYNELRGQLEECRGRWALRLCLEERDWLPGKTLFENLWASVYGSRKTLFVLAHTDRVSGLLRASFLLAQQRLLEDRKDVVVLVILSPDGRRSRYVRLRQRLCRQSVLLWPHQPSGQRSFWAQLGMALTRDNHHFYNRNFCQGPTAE
Assay: CpG ODN (TLR9 agonist)-induced cytokine production in human PBMCs
Type: cell-based
Description: All RNA molecules used in this study were heated at 90° C. for 3 min. and then placed at 37° C. for 60 min. Non-denaturing PAGE analysis on a 20% polyacrylamide gel was performed to confirm that ssRNA molecules were intact and that no duplexes had formed upon heating. The RNA molecules were encapsulated in a SNALP formulation comprising PEG-cDMA:DLinDMA:cholesterol:DSPC in a 2:40:48:10 mol % ratio (2:40 SNALP), prepared using a syringe press process.
Fresh human peripheral blood mononuclear cells (PBMCs) were isolated and seeded at about 3×10^5 cells/well in a total volume of 180 μl. Next, 20 μl of the appropriate SNALP diluted in PBS or 10 μl of naked TLR agonist were added to the PBMCs. For time course experiments, PBMCs were pretreated with UmodS ssRNA or a control and the appropriate naked TLR agonist was added at 0, 0.5, or 2 hours after pretreatment. When the SNALP and naked TLR agonist were added separately, the SNALP was added first followed by the naked TLR agonist. At t=24 hr., the cell supernatant was harvested and IFN-α and/or IL-6 levels were determined using ELISA.
Lipid Encapsulation of RNA and ODN. RNA or ODN were encapsulated in liposomes by a process of spontaneous vesicle formation as described in Judge et al., supra, and Jeffs et al., Pharm. […]
Cytokine ELISA. All cytokines were quantified using sandwich ELISA kits according to the manufacturer's instructions. […]

Luc UmodS: Luc sense strand ssRNA with 2′OMe at uridines: GAmUmUAmUGmUCCGGmUmUAmUGmUAUU (sense GAUUAUGUCCGGUUAUGUAUU; sugars from the 5' end rrmmrmrmrrrrmmrmrmrrr, backbone not given here)
IL-6 levels induced by naked ODN2006 (TLR9 agonist, phosphorothioate CpG Type B) (human PBMCs pretreated with SNALP-encapsulated ssRNA): no reduction
level of IFN-α induced by naked ODN2216 (TLR9 agonist, phosphorothioate CpG Type A) (human PBMCs, SNALP-encapsulated ssRNA plus naked ODN): increased
